Like-named read-outs stand apart in the source and are kept apart here. Marks after values point to notes of the source that are not given here.
How the values were obtained:
p53 Y220C [1] = molecular target: T1, p53 Y220C (Homo sapiens, UniProt P04637, P309S/R273H/Y220C); assay: DNA binding test (HTRF): binding of P53Y220C protein to DNA; type: biochemical; conditions: HTRF, activation of p53 Y220C (aa 94-312) binding to biotin DNA
T1 construct: a truncated mutant containing only amino acids 94-312 of p53; made in house; host or cells: E. coli

p53 Y220C [2] = molecular target: T2, p53 Y220C (Homo sapiens, UniProt P04637, Y220C); assay: as above; type: biochemical; conditions: multiple ratio of EC50 of the compound to the reference compound, DNA binding test
T2 construct: a truncated mutant containing only amino acids 94-312 of p53; made in house; host or cells: E. coli

NUGC-3 cells = assay: NUGC-3 cell proliferation assay (CTG); type: cell-based, human; conditions: for GI50: 6 days, CTG; for Compound GI50 (nM)/Reference compound GI50 (nM): multiple ratio of GI50 of the compound to the reference compound
How it was run: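 GI50 derived by variable-slope regression of percent inhibition (normalized to blank and 0.1% DMSO controls) from CTG luminescence. Compound was given as 10 threefold dilutions, highest final 10 μM, to overnight-seeded NUGC-3 cells (250/well) for 6 days, 37° C, 5% CO2.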

CYP 3A4 = molecular target: T3, CYP 3A4 (Homo sapiens, UniProt P08684); assay: CYP 3A4 time-dependent inhibition test; type: in vitro ADME; conditions: midazolam substrate
T3 construct: purchased BioIVT X008067
Protocol: CYP 3A4 and the test compound or mifepristone of various concentrations were added to a 96-deep well plate for pre-incubation. The plate was placed in a water bath and preheated at 37° C. for 5 min. For the 0 min pre-incubation samples, midazolam substrate was added to the incubation plate, then 10 mM NADPH solution was added, and the reaction was carried out in a 37° C. water bath for 5 min; for the 30 min pre-incubation samples with NADPH, 10 mM NADPH solution was added to the incubation plate, pre-incubated in a 37° C. water bath for 30 min, and then midazolam substrate was added and reacted in a 37° C. water bath for 5 min; for the 30 min pre-incubation samples without NADPH, the incubation plate was pre-incubated in a 37° C. water bath for 30 min, then midazolam substrate was added, 10 mM NADPH solution was added, and the reaction was carried out in a 37° C. water bath for 5 min. After the reaction was completed, the quenching solution (500 nM tolbutamide (Bide Pharmaceuticals, Cat. No. BD154332) and 10 nM terfenadine (Sigma, Cat. No. T96532)) were added to quench the reaction, and the plate was centrifuged at 3,220 g for 40 min at 4° C. The supernatant was pipetted into a new plate, the supernatant was diluted with pure water and mixed well, and the sample was analyzed using UPLC-MS/MS.

[3] = 0 min pre-incubation, read-out: IC50 (μM) 0 min
[4] = 30 min pre-incubation with NADPH, read-out: IC50 (μM) 30 min, with NADPH
[5] = 30 min pre-incubation without NADPH, read-out: IC50 (μM) 30 min, without NADPH

T3 sequence (P08684 whole entry): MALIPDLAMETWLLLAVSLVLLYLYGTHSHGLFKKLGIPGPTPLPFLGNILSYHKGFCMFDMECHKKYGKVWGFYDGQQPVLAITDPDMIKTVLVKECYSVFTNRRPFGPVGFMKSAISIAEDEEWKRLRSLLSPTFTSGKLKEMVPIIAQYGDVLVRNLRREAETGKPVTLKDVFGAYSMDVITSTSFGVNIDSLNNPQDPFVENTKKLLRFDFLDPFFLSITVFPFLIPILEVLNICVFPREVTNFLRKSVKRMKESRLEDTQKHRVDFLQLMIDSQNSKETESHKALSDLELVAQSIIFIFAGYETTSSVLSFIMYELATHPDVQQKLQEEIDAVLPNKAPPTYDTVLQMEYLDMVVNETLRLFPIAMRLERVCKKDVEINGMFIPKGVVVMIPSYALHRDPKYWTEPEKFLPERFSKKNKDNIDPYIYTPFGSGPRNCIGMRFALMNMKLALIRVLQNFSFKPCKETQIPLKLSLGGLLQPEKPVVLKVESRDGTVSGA

With [2H]C([2H])([2H])NC(=O)c1ccc(NCC#Cc2cc3c(NC4CCC(N5CC6(COC6)C5)CC4F)cccn3c2CC(F)(F)F)c(OC([2H])([2H])[2H])c1 (single isomer, unassigned) [Compound 74d] the EC50 (p53 Y220C [1]) was less than 100 nM, the “Compound EC50 (nM)/Reference compound EC50 (nM)” value (“Compound EC50” below) (p53 Y220C [2]) was “A (A: EC50 of the compound≤EC50 of the reference compound)” and the GI50 (NUGC-3 cells; Homo sapiens, NUGC-3, 144 h) was less than 1000 nM. For the same compound, the “Compound GI50 (nM)/Reference compound GI50 (nM)” value (“Compound GI50” below) (NUGC-3 cells) was “A (A: GI50 of the compound ≤ GI50 of the reference compound)”, the IC50 (CYP 3A4; [3]) was 4.55 µM and the IC50 (CYP 3A4; [4]) was 1.56 µM. It also gave an IC50 (CYP 3A4; [5]) of 5.91 µM.
For CNC(=O)c1ccc(NCC#Cc2nc3c(NC4CCC(N5CC6(COC6)C5)CC4F)cccn3c2CC(F)(F)F)c(OC)c1 (single isomer, unassigned) [Compound 35-6i], the EC50 (p53 Y220C [1]) was less than 100 nM, the “Compound EC50” value (p53 Y220C [2]) was “B (B: EC50 of the reference compound<EC50 of the compound≤3.0*EC50 of the reference compound)” and the GI50 (NUGC-3 cells) was less than 1000 nM. The “Compound GI50” value (NUGC-3 cells) was “A (A: GI50 of the compound ≤ GI50 of the reference compound)”, the IC50 (CYP 3A4; [3]) was 7.48 µM and the IC50 (CYP 3A4; [4]) was 3.01 µM. The IC50 (CYP 3A4; [5]) was 7.46 µM.
In the case of CNC(=O)c1ccc(NCC#Cc2nc3c(N[C@@H]4CCN(C)C[C@@H]4F)cccn3c2CC(F)(F)F)c(OC)c1 [Compound 5], the EC50 (p53 Y220C [1]) is reported as less than 100 nM, the “Compound EC50” value (p53 Y220C [2]) is reported as “B (B: EC50 of the reference compound<EC50 of the compound≤3.0*EC50 of the reference compound)” and the GI50 (NUGC-3 cells; Homo sapiens, NUGC-3, 144 h) is reported as 1000 to 5000 nM. For the same compound, the “Compound GI50” value (NUGC-3 cells) was “B (B: GI50 of the reference compound < GI50 of the compound ≤ 3.0 * GI50 of the reference compound)”, the IC50 (CYP 3A4; [3]) was 8.05 µM and the IC50 (CYP 3A4; [4]) was 1.89 µM. For the same compound, the IC50 (CYP 3A4; [5]) was 8.36 µM.
With COc1cc(C(=O)NC2CC2)ccc1NCC#Cc1nc2c(NC3CC[C@@H](N4CC5(COC5)C4)C[C@@H]3F)cccn2c1CC(F)(F)F (some centres unmarked) [Compound 54] the EC50 (p53 Y220C [1]) was less than 100 nM, the “Compound EC50” value (p53 Y220C [2]) was “B (B: EC50 of the reference compound<EC50 of the compound≤3.0*EC50 of the reference compound)” and the GI50 (NUGC-3 cells; Homo sapiens, NUGC-3, 144 h) was less than 1000 nM. The “Compound GI50” value (NUGC-3 cells) was “C (C: GI50 of the compound ≥ 3 * GI50 of the reference compound)”.
In the case of [2H]C([2H])([2H])NC(=O)c1ccc(NCC#Cc2nc3c(NC4CC[C@@H](N5CC6(COC6)C5)C[C@@H]4F)cccn3c2CC(F)(F)F)c(OC([2H])([2H])[2H])c1 (some centres unmarked) [Compound 64], the EC50 (p53 Y220C [1]) is reported as less than 100 nM, the “Compound EC50” value (p53 Y220C [2]) is reported as “B (B: EC50 of the reference compound<EC50 of the compound≤3.0*EC50 of the reference compound)” and the GI50 (NUGC-3 cells; Homo sapiens, NUGC-3, 144 h) is reported as less than 1000 nM. For the same compound, the “Compound GI50” value (NUGC-3 cells) was “B (B: GI50 of the reference compound < GI50 of the compound ≤ 3.0 * GI50 of the reference compound)”.
In the case of CNC(=O)c1ccc(NCC#Cc2nc3c(NC4CC[C@@H](N5CC6(COC6)C5)C[C@@H]4F)cccn3c2CC(F)(F)F)c(OCF)c1 (some centres unmarked) [Compound 58], the “Compound EC50” value (p53 Y220C [2]) is reported as “B (B: EC50 of the reference compound<EC50 of the compound≤3.0*EC50 of the reference compound)”, the GI50 (NUGC-3 cells; Homo sapiens, NUGC-3, 144 h) is reported as less than 1000 nM and the “Compound GI50” value (NUGC-3 cells) is reported as “B (B: GI50 of the reference compound < GI50 of the compound ≤ 3.0 * GI50 of the reference compound)”.

— patent US20260132128A1, “COMPOUND FOR RECOVERING P53 MUTATION FUNCTION AND USE THEREOF” (SHENZHEN ZHONGGE BIOLOGICAL TECHNOLOGY CO., LTD., priority 2022, published 2026)
